The subject of series [1] is Male Zucker diabetic fatty rats (ZDF/GmiCrl-fa/fa). Briefly: Fecal bile acid excretion and plasma bile acid concentrations in ZDF rats given 264W94. The class given is in vivo, rat. The conditions noted are these: 2 weeks. The method, then:
Male Zucker diabetic fatty rats (ZDF/GmiCrl-fa/fa) were purchased from Charles River (Raleigh, N.C.) and housed under controlled conditions (12:12 light-dark cycle, 24° C. and 50% relative humidity) with free access to rodent food (Purina 5008, Harlan Teklad, Indianapolis, Ind.). All rats arrived at seven weeks of age (±3 days). After a one-week acclimation period, rats were anesthetized with isoflurane (Abbott Laboratories, IL) and tail-vein blood samples were collected at 9 am without fasting. Blood glucose levels were measured using a glucometer (Bayer, Leverkusen, Germany). In order to ensure balanced treatment groups, ZDF rats were assigned to six treatment groups based upon baseline glucose: vehicle (0.5% HPMC, 0.1% Tween80) and five doses of 264W94 (0.001, 0.01, 0.1, 1, 10 mg/kg). All treatments were given via oral gavage twice a day and animals were followed for two weeks with blood samples collected from tail vein at the end of each week at 9 am without fasting. Fecal samples were collected for 24 hours during the second week of treatment.
Non-esterified fatty acids (NEFA), bile acids, and bile acids in fecal extraction were measured using the Olympus AU640 clinical chemistry analyzer (Beckman Coulter, Irving, Tex.).

Series [2] concerns Male beagle dogs. Briefly: Time to onset of activity on postprandial serum total bile acids in beagle dogs. The class given is in vivo. The conditions noted are these: dog. The method, then:
(§1) Test compound: LUM001-Form I
(§2) LUM001 was dissolved in water at concentrations that required the administration of 0.2 ml/kg of solution. Solutions were placed into gelatin capsules, Torpac Inc., size 13 Batch 594, East Hanover N.J., and administered orally.
(§3) Male beagle dogs were obtained from Covance Research Products, Cumberland Va. or Marshall Farms USA, Inc., North Rose N.Y. A total of 20 dogs, 1 to 5 years old, 6.8 to 15.6 kg body weight, were used in these experiments. The dogs were conditioned to a 12 hour light/dark cycle and maintained on a feeding restriction of 1 hour per day access to food (Richman Standard Certified Canine Diet #5007, PMI Nutrition, Inc., St Louis Mo.) from 7 to 8 AM. They were trained to eat a special meal promptly within 20 minutes when presented (1 can. 397 g, Evanger's 100% Beef for Dogs, Evanger's Dog and Cat Food Co., Inc., Wheeling Ill., mixed with 50 g of sharp cheddar cheese.).
(§4) SBA was measured by an enzymatic assay. SBA values are expressed as μg of total bile acids/ml of serum.
To estimate the details of this plateau, 6 dogs were given a test meal and blood samples for SBA measurement were collected at −30, 0, 30, 60, 65, 70, 80, 90, 120, 180, 240, 360, 480, 720, 1410 and 1440 minutes from the time of feeding. Any remaining food was removed 20 min after it was first presented to the dogs. […]

Series [3] concerns treated subjects aged 10-17. Briefly: Pediatric multiple-dose study, tolerability. The class given is in vivo, human. The conditions noted are these: 2 weeks daily up to 5 mg q.d.; 39 treated subjects aged 10-17. From the text:
(39 treated subjects aged 10-17).

A further series has as its system healthy, adult subjects. Briefly: Phase 1 ascending multiple oral doses in healthy subjects: serum and fecal bile acid analysis. The class given is in vivo, human. Conditions: 28 days. The method, then:
This Phase 1 study was a randomized, double-blind, placebo-controlled study of ascending multiple oral doses of LUM001 in healthy, adult subjects. This study was conducted at a single center. There were 13 LUM001 dosing panels: 10, 20, 60, 100, and 20 mg every morning (qAM) (2) (i.e., the regimen was tested a second time in the study), 5 mg every evening (qPM), 0.5, 1, 2.5, 5, 2.5 (2), 5 (2), and 0.5 to 5 mg qAM dose titration. Most of the dosing panels included subjects treated with matching placebo. Shown in the graphs are data from the 0.5 (n=16), 1.0 (n=8), 2.5 (n=8), 5.0 (n=8) and 10 (n=8) mg dosing groups. […]
SBA were analyzed as part of the routine clinical analysis of the serum samples collected at each time point.
Fecal samples were collected for all panels except the dose-titration panel, 2.5 (2) and 5 mg (2), on Days 9 through 14 and 23 through 28 (data shown in FIG. 4). Twenty-four hour FBA excretions were quantified by Pharmacia for Days 9 through 14 and 23 through 28. […] The weight of each 24-hour fecal collection was recorded on the CRFs. […]
An aliquot for each 24-hour fecal sample collected on Days 23 through 28 was combined, homogenized, and analyzed for bile acid species concentrations by ANAPHARM. The fecal bile acid species evaluated include chenodeoxycholic acid, cholic acid, deoxycholic acid, and lithocholic acid.

Series [4] concerns children and adolescents under the age of eighteen. Briefly: Fasting serum bile acid and morning post-prandial peak in pediatric subjects. The class given is in vivo, human. Conditions: QD in the morning. On the procedure:
(§5) LUM001 has been administered to forty patients under the age of 18 years old. […] The drug was administered once-a-day (QD) in the morning for fourteen days. […] These doses are similar to those using to treat children with cholestatic diseases.
The efficacy of LUM001 was determined by measuring total serum bile acids after eight days of dosing in children and adolescents under the age of eighteen. Thirty minutes before the next drug administration, at approximately 8 am in the morning, serum bile acid levels were measured. The child had refrained from food for 12 hours prior to this sample thus providing a fasted level of serum bile acid. After breakfast, serum bile acids were measured for up to the next 4 hours (8 am to noon) and the peak serum bile acid concentration noted.

A short description of series [5]: Pharmacokinetics (systemic exposure) of LUM001 in pediatric subjects. Format: in vivo, human. Conditions: for concentration at 8 day: human, serum, read-out: Average serum drug exposure. On the procedure:
as §5

Series [6] has as its system Male beagle dogs. Briefly: Duration of action on dog serum bile acids, Method 1: two meals for extended SBA elevation. The conditions noted are these: for Serum Bile Acid, Mean: full meal at 0 hr, dosed at 1 hr, half meal at 4 hr. Format: in vivo. On the procedure: as §1, §2, §3, §4
To estimate the details of this plateau, 6 dogs were given a test meal and blood samples for SBA measurement were collected at −30, 0, 30, 60, 65, 70, 80, 90, 120, 180, 240, 360, 480, 720, 1410 and 1440 minutes from the time of feeding. Any remaining food was removed 20 min after it was first presented to the dogs. To establish a method for extending the elevated plateau of SBA, 6 dogs were given the meal at 0 hr and an additional ½ size meal again 4 hr after their first meal. Blood samples were taken at 0, 1, 2, 3, 4, 4.5, 6, 7 and 8 hr. The curves for SBA level vs time obtained in these experiments were used as references for determining blood sampling times in experiments with LUM001. Wherever possible, experimental design permitting, in experiments with test compound, each dog served as its own simultaneous control, and the mean 1 hr SBA value served as the reference to which all other mean values were compared.
In dogs a single experimental meal produces a postprandial rise in SBA that is elevated to a peak at 1 hour after feeding and constant for an additional 3 hours. Previous experiments (2) indicate that LUM001 remains active for more than 4.5 hours. To measure the duration of action of an ASBT inhibitor using postprandial SBA levels requires that in the control situation the SBA levels remain elevated and constant for the entire period of compound action, or that the compound be administered long before the postprandial rise occurs, and remain active in the empty digestive system for long periods before feeding. Accordingly, two alternative methods were used to provide a window of constant SBA elevation that could be used to measure the duration of action of ASBT inhibitors.
[…] At 4 hours after the meal was offered, a second meal of ½ the size of the first meal was offered. It too was consumed as promptly and thoroughly as the first meal, and provided an extended, constant SBA plateau. Blood samples for SBA measurement were taken at 0, 1, 1.5, 2, 4, 4.5, 5, 5.5, 6, 6.5, 7, 7.5 and 8 hours from the time of offering the first meal. Mean SBA levels were compared to the mean SBA level at 1 hour, each dog serving as its own control.
All animals were fed a full meal at 0 hour, dosed orally with the compound at 1 hour and then fed an additional one-half meal at 4 hours. *=p<0.05 compared to the mean value in the same curve at 1 hour by two-tailed paired two-sample t-test.

The subject of another series is Male ZDF rats. Briefly: Plasma bile acid levels of ZDF rats after ascending doses of SC-435 and LUM002. The class given is in vivo, rat. The conditions noted are these: ZDF rats n=4; all doses (SC-435 1, 10, 30 mg/kg; LUM002 0.3, 1, 3, 10, 30 mg/kg) oral gavage twice a day, 2 weeks. On the procedure: FIG. 2. Plasma bile acid levels of ZDF rats after administration of ascending doses of SC-435 and LUM002. Male ZDF rats (n=4) were administered vehicle, SC-435 (1, 10 or 30 mg/kg) or LUM002 (0.3, 1, 3, 10 or 30 mg/kg) by oral gavage twice a day for 2 weeks. Plasma bile acid levels were determined at the end of the second week. Data are expressed as mean values±SEM.
Male ZDF rats (n=4) were administered vehicle, SC-435 (1, 10 or 30 mg/kg) or LUM002 (0.3, 1, 3, 10 or 30 mg/kg) by oral gavage twice a day for 2 weeks. Plasma bile acid levels were determined at the end of the second week. […] Data are expressed as mean values±SEM.

Where two headings read alike, the source gives them in different places. Marks after values point to notes of the source that are not given here.

For `CCCC[C@]1(CC)CS(=O)(=O)c2cc(OC)c(OC)cc2[C@@H](c2ccccc2)N1` [Compound 264W94], the “Fecal bile acid concentrations elevated compared to vehicle treated rats” value in series [1] (0.001-10 mg/kg oral gavage twice a day, 24 h feces in second week) is “up to 6.5 fold”. Moreover, in series [1] (oral gavage twice a day), the “ED50 for elevation of fecal bile acid concentrations” value came out at 0.17 mg/kg, the “Fecal NEFA” value was “slightly increased” and the “Plasma bile acid concentrations” value is “decreased dose-dependently”.

As for `CCCCC1(CCCC)CS(=O)(=O)c2ccc(N(C)C)cc2[C@@H](c2ccc(OCc3ccc(C[N+]45CCN(CC4)CC5)cc3)cc2)[C@H]1O` [LUM001], the “Time after dosing to significantly lowered SBA levels” value in the series on Male beagle dogs [2] (0.05 mg/kg oral) was 1 to 2 h. In addition, the “Serum Bile Acid, Mean” value was 2.8 µg/mL in the series with Male beagle dogs [2] (1 mg/kg p.o., 0 min from feeding, fed at 0 min, dosed at 60 min); 1.4 µg/mL with Male beagle dogs [6] (0 hr); 9.2 µg/mL in the series on Male beagle dogs [6] (1 hr); 9.6 µg/mL with Male beagle dogs [6] (1.5 hr); 6.7 µg/mL in the series with Male beagle dogs [6] (2 hr); 5.1* μg/ml with Male beagle dogs [6] (4 hr). The “Serum Bile Acid, Mean” value is 6.4 µg/mL in the series on Male beagle dogs [6] (4.5 hr); 7.0 µg/mL in the series on Male beagle dogs [6] (5 hr); 7.0 µg/mL in the series on Male beagle dogs [6] (6 hr); 7.4 µg/mL in the series with Male beagle dogs [6] (7 hr); 6.5 µg/mL with Male beagle dogs [6] (8 hr). In series [3], the Tolerability result was “well-tolerated”. Besides, in the series on healthy, adult subjects, the Fecal bile acids result was “significant increase”. Also, the Serum bile acids entry in the series with healthy, adult subjects is “significant reduction”. The “Decrease of fasting serum bile acid level versus placebo patients” value in series [4] was determined as 24%. Besides, in series [4], the “Decrease of post-prandial peak serum bile acid level versus placebo patients” value is listed as 23%. Also, the “Systemic absorption (levels of systemic exposure measured on day eight)” value in series [5] (children, once-a-day in the morning for fourteen days) is recorded as “minimally absorbed”. Further, the concentration at 8 day came to 0 ng/mL in series [5] (Subject 0308, 1.0 mg, 28.9 μg/kg QD); 0 ng/mL in series [5] (Subject 0410, 2.5 mg, 42.0 μg/kg QD); 0 ng/mL in series [5] (Subject 0510, 5.0 mg, 168.4 μg/kg QD). For the same molecule, in the series with Male beagle dogs [6] (previous experiments), the “Time LUM001 remains active” value is given as “more than 4.5 hours”.

Turning to `CCCC[C@]1(CC)CS(=O)(=O)c2ccc(N(C)C)cc2[C@@H](c2cccc(NC(=O)N[C@@H]3O[C@H](COS(=O)(=O)[O-])[C@@H](O)[C@H](OCc4ccccc4)[C@H]3O)c2)[C@H]1O.[K+]` [LUM002], the “Plasma bile acid levels” value with Male ZDF rats is listed as “decreased”.

Take `CCCCC1(CCCC)CS(=O)(=O)c2ccc(N(C)C)cc2[C@@H](c2ccc(OCCCC[N+]34CCN(CC3)CC4)cc2)[C@H]1O.CS(=O)(=O)[O-]` [SC-435, 1-[4-[4-[(4R,5R)-3,3-dibutyl-7-(dimethylamino)-2,3,4,5-tetrahydro-4-hydroxy-1,1-dioxido-1-benzothiepin-5-yl]phenoxy]butyl]-4-aza-1-azoniabicyclo[2.2.2]octane methanesulfonate salt, reference compound]: in the series on Male ZDF rats, the “Plasma bile acid levels” value was “decreased”.

The values above are taken from patent US20140243281A1, “BILE ACID RECYCLING INHIBITORS FOR TREATMENT OF PEDIATRIC CHOLESTATIC LIVER DISEASES” (Lumena Pharmaceuticals, Inc., priority 2011, published 2014).
